Experimental data taken from publication PMC9728921, “Characterization of a KDM5 small molecule inhibitor with antiviral activity against hepatitis B virus” (PLOS ONE, 2022).

Columns and labels:
[1] = Cytotoxicity CC50, MRC-5; type: cell-based; settings: human, MRC-5 cells (embryonal lung fibroblasts)
Excerpt: (§1) a Values represent the geometric mean and multiplicative standard deviation of 3 – 5 primary human hepatocyte (PHH) donors or 5 – 10 independent experiments.
(§2) b MT-4: human T-lymphoblastoid cell line; PBMC: peripheral blood mononuclear cell; Gal-HepG2: galactose adapted human hepatoblastoma cell line; Huh-7: human hepatoma cell line; Gal-PC3: galactose adapted human prostate carcinoma cell line; MRC-5: Medical Research Council 5 embryonal lung fibroblast; NRVM: neonatal rat ventricular cardiomyocytes

[2] = Cytotoxicity CC50, NRVM; type: cell-based; settings: rat, NRVM (neonatal rat ventricular cardiomyocytes)
Excerpt: as §1, §2

[3] = Cytotoxicity CC50, Huh-7; type: cell-based; settings: human, Huh-7 cells (hepatoma cell line)
Excerpt: as §1, §2

[4] = tested on: HBV; assay: Secreted HBeAg by immunoassay in HBV-infected PHH; type: cell-based; settings: Hepatitis B virus
Protocol: (§3) Approximately 24 hours after plating, PHH were infected with HepAD38-derived GTD virus at 500 viral genome equivalents per cell in maintenance medium supplemented with 4% PEG 8000 (Promega, Madison, WI; V3011). For patient sera infections, PHH were infected with 6 μl of patient sera in maintenance medium supplemented with 4% PEG 8000. Infections were allowed to proceed for 20–24 hours before removing remaining extracellular virions by washing with maintenance medium three times. […]
(§4) Hepatitis B e antigen (HBeAg) and Hepatitis B surface antigen (HBsAg) were detected in culture media at the indicated time by ELISA or electrochemiluminescence assay (MSD). The HBeAg and HBsAg ELISAs were performed using the HBeAg ELISA kit (International Immuno-Diagnostics, Foster City, CA) and HBsAg ETI-MAK-2 plus kit (DiaSorin, Stillwater, MN), respectively according to the manufacturer’s instructions. Concentrations were calculated by interpolation from standard curves with purified HBeAg and HBsAg. The MSD assay was performed according to the manufacturer’s instructions (Meso Scale Diagnostics, Rockville, MD). Briefly, cultured supernatants were inactivated with 0.5% Triton X-100 (30 minutes at 37°C) and then transferred into plates pre-spotted with both an anti-HBeAg antibody (Genway Bio, San Diego, CA) and a custom anti-HBsAg antibody. The plates were then incubated for two hours at room temperature with gentle shaking, followed by a wash step in PBS with 0.5% Tween. MSD sulfate tags anti-A and anti-B (1 μg/mL each) were then added to the wells and the plates incubated for a further two hours at room temperature with gentle shaking, followed by another wash step in PBS with 0.5% Tween. A 2X solution of MSD T Buffer Read was then added and the plate was read on a Sector Imager 6000 plate scanner.
(§5) Antiviral activity of test compounds was determined from vRNA, vDNA, HBeAg, and HBsAg data by comparing compound-treated PHH to DMSO (vehicle)-treated PHH to generate a percent of DMSO control value (% DMSO control). The % DMSO control was calculated by the following equation: %DMSOControl=100xXc/XD where Xc is the signal from the compound-treated PHH and XD is the signal from the DMSO-treated PHH. The % DMSO control for vRNA, vDNA, HBeAg, HBsAg, GAPDH, or RPLP0 was plotted versus the log of each compound concentration in GraphPad Prism (version 6; Graphpad Software, LaJolla, CA) to generate dose-response curves. […] Dose-response curves were fitted using the nonlinear regression equation “log(agonist) versus response–variable slope (four parameters)” in GraphPad Prism to determine EC50 values.

[5] = tested on: HBV; assay: Intracellular HBV RNA (vRNA) by qRT-PCR in HBV-infected PHH; type: cell-based; settings: Hepatitis B virus
Protocol: as §3
Intracellular HBV viral RNA was isolated from PHH using the RNeasy 96 kit (Qiagen, 74182) following the manufacturer’s recommended protocol. Briefly, 125 μl of Qiagen RLT lysis buffer was added to PHH. The PHH lysate was then thoroughly mixed with 125 μl of 70% ethanol, transferred into a RNeasy 96 well plate, and placed onto a vacuum manifold (Qiagen; 19504). The plate was washed using RW1 and RPE buffers, followed by centrifugation (Sigma-Aldrich, Model 4-16S) at 6000 rpm for 2 minutes. The RNA was then eluted twice with 60 μl of nuclease free water for a total of 120 μl RNA.
After elution, DNase digestion by Turbo DNase (Thermo Fisher Scientific; AM2239) was performed to remove any contaminating DNA. After 30 minutes of DNase treatment at 37°C, Turbo DNase was inactivated by adding 15 mM of EDTA and heating the reaction to 75°C for 10 minutes in a thermo cycler (Thermo Fisher Scientific; Veriti 96 Well Thermal Cycler).
GAPDH or RPLP0 mRNA expression was used to normalize target gene expression. Levels of HBV RNA for all donors were calculated as fold change relative to no drug treated sample using the 2-ΔΔCt method.
as §5

[6] = tested on: HBV; assay: Secreted HBsAg by immunoassay in HBV-infected PHH; type: cell-based; settings: Hepatitis B virus
Protocol: as §3, §4, §5

[7] = tested on: HBV; assay: HBV antiviral activity in HBV-infected PHH (overall; HBsAg and HBeAg over time); type: cell-based, Hepatitis B virus
Protocol: Approximately 24 hours after plating, PHH were infected with HepAD38-derived GTD virus at 500 viral genome equivalents per cell in maintenance medium supplemented with 4% PEG 8000 (Promega, Madison, WI; V3011). For patient sera infections, PHH were infected with 6 μl of patient sera in maintenance medium supplemented with 4% PEG 8000. Infections were allowed to proceed for 20–24 hours before removing remaining extracellular virions by washing with maintenance medium three times.
For the pulse dose regimen, medium containing compound was removed after two hours incubation and replaced with fresh maintenance medium every three to four days. Cells in the pulse dose experiment received only one dose of compound (Day = 0).
as §4

[8] = read-out: HBeAg EC50, PHH donor BCD, HBV GTD, treated every three to four days for 14 days
[9] = read-out: HBeAg EC50, PHH donor Hu276, HBV GTD, treated every three to four days for 14 days
[10] = read-out: HBeAg EC50, PHH donor Hu349, HBV GTD, treated every three to four days for 14 days
[11] = read-out: HBeAg EC50, PHH donor Hu4167, HBV GTD, treated every three to four days for 14 days
[12] = read-out: HBeAg EC50, PHH donor Hu7272, HBV GTD, treated every three to four days for 14 days
[13] = read-out: HBeAg EC50, PHH donor Hu8130, HBV GTD, treated every three to four days for 14 days
[14] = read-out: HBeAg EC50, PHH donor Hu8181, HBV GTD, treated every three to four days for 14 days
[15] = read-out: vRNA EC50, PHH donor BCD, HBV GTD, treated every three to four days for 14 days
[16] = read-out: vRNA EC50, PHH donor Hu276, HBV GTD, treated every three to four days for 14 days
[17] = read-out: vRNA EC50, PHH donor Hu349, HBV GTD, treated every three to four days for 14 days
[18] = read-out: vRNA EC50, PHH donor Hu4167, HBV GTD, treated every three to four days for 14 days
[19] = read-out: vRNA EC50, PHH donor Hu7272, HBV GTD, treated every three to four days for 14 days
[20] = read-out: vRNA EC50, PHH donor Hu8130, HBV GTD, treated every three to four days for 14 days
[21] = read-out: vRNA EC50, PHH donor Hu8181, HBV GTD, treated every three to four days for 14 days
[22] = read-out: HBsAg EC50, PHH donor BCD, HBV GTD, treated every three to four days for 14 days
[23] = read-out: HBsAg EC50, PHH donor Hu276, HBV GTD, treated every three to four days for 14 days
[24] = read-out: HBsAg EC50, PHH donor Hu349, HBV GTD, treated every three to four days for 14 days
[25] = read-out: HBsAg EC50, PHH donor Hu4167, HBV GTD, treated every three to four days for 14 days
[26] = read-out: HBsAg EC50, PHH donor Hu7272, HBV GTD, treated every three to four days for 14 days
[27] = read-out: HBsAg EC50, PHH donor Hu8130, HBV GTD, treated every three to four days for 14 days
[28] = read-out: HBsAg EC50, PHH donor Hu8181, HBV GTD, treated every three to four days for 14 days
[29] = 10 μM every three to four days, three PHH donors

CCN(CCN(C)C)C(=O)CNCc1cc(C(=O)O)ccn1 [GS-080]
CC50 [1]: > 44000 nM
CC50 [2]: > 44000 nM
CC50 [3]: > 44000 nM

CCOC(=O)c1cc(CNCC(=O)N(CC)CCN(C)C)ncc1Br [GS-420]
EC50 [4, 8]: > 10000 nM
EC50 [4, 9]: > 10000 nM
EC50 [4, 10]: > 10000 nM
EC50 [4, 11]: > 10000 nM
EC50 [4, 12]: > 10000 nM
EC50 [4, 13]: > 10000 nM
EC50 [4, 14]: > 10000 nM
EC50 [5, 15]: > 10000 nM
EC50 [5, 16]: > 10000 nM
EC50 [5, 17]: > 10000 nM
EC50 [5, 18]: > 10000 nM
EC50 [5, 19]: > 10000 nM
EC50 [5, 20]: > 10000 nM
EC50 [5, 21]: > 10000 nM
EC50 [6, 22]: > 10000 nM
EC50 [6, 23]: > 10000 nM
EC50 [6, 24]: > 10000 nM
EC50 [6, 25]: > 10000 nM
EC50 [6, 26]: > 10000 nM
EC50 [6, 27]: > 10000 nM
EC50 [6, 28]: > 10000 nM
HBV antiviral activity in PHH ([7]; concentrations up to 10 μM): did not exhibit HBV antiviral activity

CCOC(=O)c1ccnc(CNCC(=O)N(CC)CCN(C)C)c1 [GS-5801]
EC50 ([4]; 336 h, read-out: EC50 range across genotypes, secreted HBeAg, range across genotypes, 14 days of dosing): 300 to 1400 nM
EC50 ([4]; 336 h, read-out: EC50 range for secreted HBeAg, range over the seven PHH donors tested, HBV GTD, Day 14): 14 to 1100 nM
EC50 [4, 8]: 14 nM
EC50 [4, 9]: 100 nM
EC50 [4, 10]: 380 nM
EC50 [4, 11]: 150 nM
EC50 [4, 12]: 610 nM
EC50 [4, 13]: 1100 nM
EC50 [4, 14]: 110 nM
EC50 ([4]; read-out: HBeAg EC50, PHH infected with HBV GTA, treated every three to four days for 13 days): 1100 nM
EC50 ([4]; read-out: HBeAg EC50, PHH infected with HBV GTD, treated every three to four days for 13 days (Table 3)): 300 nM
EC50 ([4]; read-out: HBeAg EC50, PHH infected with HBV GTE, treated every three to four days for 13 days): 1400 nM
CC50 [1]: > 44000 nM
CC50 [2]: > 44000 nM
EC50 ([5]; 336 h, read-out: EC50 range across genotypes, intracellular HBV RNA, range across genotypes, 14 days of dosing): 51 to 2700 nM
EC50 ([5]; 336 h, read-out: EC50 range for intracellular RNA, range over the seven PHH donors tested, HBV GTD, Day 14): 34 to 1100 nM
EC50 [5, 15]: 34 nM
EC50 [5, 16]: 42 nM
EC50 [5, 17]: 430 nM
EC50 [5, 18]: 47 nM
EC50 [5, 19]: 930 nM
EC50 [5, 20]: 1100 nM
EC50 [5, 21]: 160 nM
EC50 ([5]; read-out: vRNA EC50, PHH infected with HBV GTA, treated every three to four days for 13 days): 1800 nM
EC50 ([5]; read-out: vRNA EC50, PHH infected with HBV GTC, treated every three to four days for 13 days): 51 nM
EC50 ([5]; read-out: vRNA EC50, PHH infected with HBV GTD, treated every three to four days for 13 days (Table 3)): 430 nM
EC50 ([5]; read-out: vRNA EC50, PHH infected with HBV GTE, treated every three to four days for 13 days): 2700 nM
EC50 ([6]; 336 h, read-out: EC50, secreted HBsAg, across HBV genotypes (summary value), 14 days of dosing): 170 nM
EC50 ([6]; 336 h, read-out: EC50 range across genotypes, secreted HBsAg, range across genotypes, 14 days of dosing): 36 to 3100 nM
EC50 ([6]; 336 h, read-out: EC50 range for secreted HBsAg, range over the seven PHH donors tested, HBV GTD, Day 14): 15 to 1700 nM
EC50 [6, 22]: 15 nM
EC50 [6, 23]: 150 nM
EC50 [6, 24]: 970 nM
EC50 [6, 25]: 240 nM
EC50 [6, 26]: 5100 nM
EC50 [6, 27]: 1700 nM
EC50 [6, 28]: 61 nM
EC50 ([6]; read-out: HBsAg EC50, PHH infected with HBV GTA, treated every three to four days for 13 days): 36 nM
EC50 ([6]; read-out: HBsAg EC50, PHH infected with HBV GTC, treated every three to four days for 13 days): 120 nM
EC50 ([6]; read-out: HBsAg EC50, PHH infected with HBV GTD, treated every three to four days for 13 days (Table 3)): 220 nM
EC50 ([6]; read-out: HBsAg EC50, PHH infected with HBV GTE, treated every three to four days for 13 days): 3100 nM
time course throughout which antiviral activity was maintained [7, 29]: 30 to 32 days
time to maximal HBsAg and HBeAg inhibition after initiation of treatment [7, 29]: 12 to 17 days
time inhibition of HBeAg and HBsAg was sustained following a pulse dose ([7]; single two-hour pulse dose, 10 μM, donor): up to 20 days
CC50 [3]: > 44000 nM
